The record followed here is patent publication US9850216B2 (H. LEE MOFFITT CANCER CENTER AND RESEARCH INSTITUTE, INC., priority 2013, dated 2017).

For one data set, the target named is ACK1 (Homo sapiens, UniProt Q07912). As to the kind of experiment: ACK1 ELISA: phosphorylation of AKT-derived peptide. The class given is biochemical. Conditions: 10 μM. On the technique in general: ELISA stands for enzyme-linked immunosorbent assay.
The mark [1] stands for this setting: Table 1, replicate values listed.
The mark [2] stands for this setting: Table 1, replicate values listed, read-out: % Inhibition at 10 μM (ELISA).
The mark [3] stands for this setting: Table 1, replicate values listed, hydrochloride.
The mark [4] stands for this setting: Table 2, library 9, read-out: % Inhibition @ 10 μM (ELISA).

Each structure is given as a SMILES string. Where “and” joins values, the source holds several entries; their conditions need not be identical. Equal entries are not always repeated. Where two headings read alike, the source gives them in different places.

Chain of ACK1 (Q07912 whole entry): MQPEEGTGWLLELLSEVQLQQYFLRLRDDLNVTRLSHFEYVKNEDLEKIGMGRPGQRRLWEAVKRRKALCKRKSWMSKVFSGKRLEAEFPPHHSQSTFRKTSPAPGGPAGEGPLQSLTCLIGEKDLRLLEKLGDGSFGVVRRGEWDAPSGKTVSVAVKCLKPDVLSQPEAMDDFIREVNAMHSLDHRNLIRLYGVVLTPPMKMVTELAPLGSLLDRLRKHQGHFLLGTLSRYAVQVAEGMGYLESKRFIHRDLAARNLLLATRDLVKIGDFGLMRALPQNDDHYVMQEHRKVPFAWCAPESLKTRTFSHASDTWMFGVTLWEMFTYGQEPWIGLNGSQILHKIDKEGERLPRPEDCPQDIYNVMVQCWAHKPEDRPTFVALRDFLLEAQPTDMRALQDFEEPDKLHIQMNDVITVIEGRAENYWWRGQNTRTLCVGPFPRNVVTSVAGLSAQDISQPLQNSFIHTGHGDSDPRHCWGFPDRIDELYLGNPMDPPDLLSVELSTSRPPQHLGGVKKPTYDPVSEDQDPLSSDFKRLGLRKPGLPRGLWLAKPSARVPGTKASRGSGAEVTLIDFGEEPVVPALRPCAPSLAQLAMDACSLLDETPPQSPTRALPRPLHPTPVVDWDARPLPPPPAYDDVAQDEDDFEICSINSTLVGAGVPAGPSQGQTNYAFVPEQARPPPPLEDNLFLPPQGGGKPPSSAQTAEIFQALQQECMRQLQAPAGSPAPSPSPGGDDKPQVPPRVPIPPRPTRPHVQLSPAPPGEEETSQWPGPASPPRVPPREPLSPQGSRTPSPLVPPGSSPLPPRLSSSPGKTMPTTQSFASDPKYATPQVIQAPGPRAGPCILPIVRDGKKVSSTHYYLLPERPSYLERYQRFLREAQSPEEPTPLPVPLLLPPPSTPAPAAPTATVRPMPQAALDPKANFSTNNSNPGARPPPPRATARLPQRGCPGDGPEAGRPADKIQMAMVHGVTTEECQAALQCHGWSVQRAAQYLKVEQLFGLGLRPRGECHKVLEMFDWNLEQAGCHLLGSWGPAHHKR

For `CCCS(=O)(=O)c1ccccc1Nc1nc(Nc2ccc(OC)cc2)ncc1C(=O)Nc1c(F)cccc1Cl` [YL7-055-1, N-(2-chloro-6-fluorophenyl)-2-(4-methoxyphenylamino)-4-(2-(propylsulfonyl)phenylamino)pyrimidine-5-carboxamide], the melting point fell in the range of 234 to 235 °C. Also, on ACK1 (setting [1]), the “% Inhibition at 10 μM (ELISA)” value is 27% and 13%.
With `CN1CCN(c2ccc(Nc3ncc(F)c(NCC4CCCO4)n3)cc2)CC1` (stereo not drawn) [DZ1-098, 5-fluoro-N2-(4-(4-methylpiperazin-1-yl)phenyl)-N4-((tetrahydrofuran-2-yl)methyl)pyrimidine-2,4-diamine], the melting point is 86 °C (dec.). Also, on ACK1 (setting [1]), the “% Inhibition at 10 μM (ELISA)” value is 48%. Further, at ACK1 (setting [2]), the inhibition at 10 µM was determined as 61%.
`CC(C)(C)OC(=O)N1CCN(c2ccc(Nc3ncc(C(=O)Nc4c(F)cccc4Cl)c(NCC4CCCO4)n3)cc2)CC1.Cl` (stereo not drawn) [YL9-161, tert-Butyl4-(4-(5-(2-chloro-6-fluorophenylcarbamoyl)-4-((tetrahydrofuran-2-yl)methylamino)pyrimidin-2-ylamino)phenyl)piperazine-1-carboxylate hydrochloride] yielded a melting point of 184 to 186 °C. Also, the “% Inhibition at 10 μM (ELISA)” value on ACK1 (setting [3]) is 31%. Besides, on ACK1 (setting [2]), the inhibition at 10 µM came to 28%.
Turning to `Cl.Oc1ccc(Nc2nc(NCC3CCCO3)c3ccccc3n2)cc1F` (stereo not drawn) [YL8-001, 2-Fluoro-4-(4-((tetrahydrofuran-2-yl)methylamino)quinazolin-2-ylamino)phenol hydrochloride], the melting point was 144 °C (dec.). For the same molecule, the “% Inhibition at 10 μM (ELISA)” value at ACK1 (setting [3]) is 4% and 10% and −6%.
The molecule `CS(=O)(=O)c1ccccc1Nc1nc(Cl)ncc1C(=O)Nc1c(F)cccc1Cl` [YL7-034, 2-Chloro-N-(2-chloro-6-fluorophenyl)-4-(2-(methylsulfonyl)phenylamino)pyrimidine-5-carboxamide] registered a melting point of 211 to 214 °C. Besides, on ACK1 (setting [1]), the “% Inhibition at 10 μM (ELISA)” value was 16% and −3% and −6%.
As for `CC(C)S(=O)(=O)c1ccccc1Nc1nc(Nc2ccc(S(N)(=O)=O)cc2)ncc1C(=O)Nc1c(F)cccc1Cl` [YL7-100-1], the melting point was 192 °C (dec.). At ACK1 (setting [1]), the “% Inhibition at 10 μM (ELISA)” value is listed as 6%. For the same molecule, the inhibition at 10 µM at ACK1 (setting [2]) came out at 8%.
On to `Cl.Fc1cccc(Nc2ncc(Br)c(NCC3CCCO3)n2)c1` (stereo not drawn) [YL7-172-3, 5-Bromo-N2-(3-fluorophenyl)-N4-((tetrahydrofuran-2-yl)methyl)pyrimidine-2,4-diamine hydrochloride], for which the melting point lay within 194 to 197 °C. For the same molecule, the “% Inhibition at 10 μM (ELISA)” value at ACK1 (setting [3]) was 69% and 21% and 25%.
Turning to `CC(C)S(=O)(=O)c1ccccc1Nc1nc(Nc2ccc(N3CCOCC3)cc2)ncc1C(=O)Nc1c(F)cccc1Cl` [YL7-097-1, N-(2-chloro-6-fluorophenyl)-4-(2-(isopropylsulfonyl)phenylamino)-2-(4-morpholinophenylamino)pyrimidine-5-carboxamide], the melting point is 220 °C (dec.). At ACK1 (setting [1]), the “% Inhibition at 10 μM (ELISA)” value came out at 65%. For the same molecule, on ACK1 (setting [2]), the inhibition at 10 µM was 85%.
Turning to `CCOC(=O)C1CCN(c2ccc(Nc3ncc(Br)c(NCC4CCCO4)n3)cc2)CC1.Cl` (stereo not drawn) [DZ1-093, Ethyl 1-(4-(5-bromo-4-((tetrahydrofuran-2-yl)methylamino)pyrimidin-2-ylamino)phenyl)piperidine-4-carboxylate], the “% Inhibition at 10 μM (ELISA)” value at ACK1 (setting [1]) worked out at 65%. Further, the inhibition at 10 µM at ACK1 (setting [2]) was found to be 64%.
The matching figures for `Cl.O=C(Nc1c(F)cccc1Cl)c1cnc(Nc2ccc(N3CCOCC3)cc2)nc1NCC1CCCO1` (stereo not drawn) [DZ1-092, N-(2-chloro-6-fluorophenyl)-2-(4-morpholinophenylamino)-4-((tetrahydrofuran-2-yl)methylamino)pyrimidine-5-carboxamide]: 88% and 77%.
Take `COc1ccc(Nc2ncc(C(=O)Nc3c(F)cccc3Cl)c(NCC3CCCO3)n2)cc1` (stereo not drawn) [YL7-104-1, N-(2-chloro-6-fluorophenyl)-2-(4-methoxyphenylamino)-4-((tetrahydrofuran-2-yl)methylamino)pyrimidine-5-carboxamide]: the “% Inhibition at 10 μM (ELISA)” value at ACK1 (setting [1]) is 76% and 61% and 37% and 27%.
As for `CCOC(=O)C1CCN(c2ccc(Nc3ncc(Cl)c(NC[C@@H]4CCCO4)n3)cc2)CC1.Cl` [DZ1-079, (S)-ethyl1-(4-(5-chloro-4-((tetrahydrofuran-2-yl)methylamino)pyrimidin-2-ylamino)phenyl)piperidine-4-carboxylate], the “% Inhibition at 10 μM (ELISA)” value on ACK1 (setting [1]) was 69%. In addition, the inhibition at 10 µM at ACK1 (setting [2]) worked out at 54%.
`Brc1cnc(Nc2ccc(N3CCOCC3)cc2)nc1NCC1CCCO1` (stereo not drawn) [Compound 9h]: the inhibition at 10 µM on ACK1 (setting [4]) amounted to 89 ± 1.4%.
For `CCNC(=O)C1CCN(c2ccc(Nc3ncc(Cl)c(NC[C@@H]4CCCO4)n3)cc2)CC1` [SG1-083], at ACK1 (setting [1]), the “% Inhibition at 10 μM (ELISA)” value turned out to be 61%. Moreover, the inhibition at 10 µM at ACK1 (setting [2]) came out at 73%.
Taken in the same sequence, the figures for `Brc1cnc(Nc2ccc(C3CCNCC3)cc2)nc1NCC1CCCO1.Cl` (stereo not drawn) [DZ1-088, 5-bromo-N2-(4-(piperidin-4-yl)phenyl)-N4-((tetrahydrofuran-2-yl)methyl)pyrimidine-2,4-diamine] were 85% and 84%.
Taken in the same sequence, the figures for `Cl.Clc1cnc(Nc2ccc(C3CCNCC3)cc2)nc1NC[C@@H]1CCCO1` [NT1-011, (S)-5-Chloro-N^2-(4-(piperidin-4-yl)phenyl)-N^4-((tetrahydrofuran-2-yl)methyl)pyrimidine-2,4-diamine] were 76% and 77%.
For the molecule `O=C(O)C1CCN(c2ccc(Nc3ncc(Cl)c(NCC4CCCO4)n3)cc2)CC1` (stereo not drawn) [YL8-050, 1-(4-(5-Chloro-4-((tetrahydrofuran-2-yl)methylamino)pyrimidin-2-ylamino)phenyl)piperidine-4-carboxylic acid], on ACK1 (setting [1]), the “% Inhibition at 10 μM (ELISA)” value is recorded as 96%. The inhibition at 10 µM at ACK1 (setting [2]) came to 87%.
Regarding `Clc1cnc(Nc2ccc(CN3CCCCC3)cc2)nc1NCC1CCCO1` (stereo not drawn) [MH1-035-3, 5-chloro-N2-(4-(piperidin-1-ylmethyl)phenyl)-N4-((tetrahydrofuran-2-yl)methyl)pyrimidine-2,4-diamine], on ACK1 (setting [1]), the “% Inhibition at 10 μM (ELISA)” value is 72%. Further, at ACK1 (setting [2]), the inhibition at 10 µM worked out at 77%.
With `Clc1cnc(Nc2ccc(N3CCNCC3)cc2)nc1NCC1CCCO1` (stereo not drawn) [Compound 14], the inhibition at 10 µM came to 66 ± 1.5% on ACK1 (setting [4]) and 66% on ACK1 (read-out: ACK1 inhibition at 10 μM (ELISA)).
For the molecule `Cl.Oc1ccc(Nc2ncc(F)c(NCC3CCCO3)n2)cc1F` (stereo not drawn) [YL7-164, 2-Fluoro-4-(5-fluoro-4-((tetrahydrofuran-2-yl)methylamino)pyrimidin-2-ylamino)phenol hydrochloride], the “% Inhibition at 10 μM (ELISA)” value at ACK1 (setting [3]) is 46% and 55%. Moreover, the inhibition at 10 µM at ACK1 (setting [2]) stood at 37%.
Turning to `Cc1cnc(Nc2ccc(O)c(F)c2)nc1NCC1CCCO1.Cl` (stereo not drawn) [YL7-170-1, 2-Fluoro-4-(5-methyl-4-((tetrahydrofuran-2-yl)methylamino)pyrimidin-2-ylamino)phenol hydrochloride], at ACK1 (setting [3]), the “% Inhibition at 10 μM (ELISA)” value is 51% and 29% and 47%.
With `Clc1cnc(Nc2ccc(N3CCNCC3)cc2)nc1NCC1CCCO1` (stereo not drawn) [MH1-007-3, 5-chloro-N2-(4-(piperazin-1-yl)phenyl)-N4-((tetrahydrofuran-2-yl)methyl)pyrimidine-2,4-diamine], the “% Inhibition at 10 μM (ELISA)” value at ACK1 (setting [1]) is 73% and 78% (2×). Further, on ACK1 (setting [2]), the inhibition at 10 µM amounted to 91%.
For `COc1cc(N2CCOCC2)ccc1Nc1ncc(Cl)c(NCC2CCCO2)n1` (stereo not drawn) [MH1-030-4, 5-chloro-N2-(2-methoxy-4-morpholinophenyl)-N4-((tetrahydrofuran-2-yl)methyl)pyrimidine-2,4-diamine], at ACK1 (setting [1]), the “% Inhibition at 10 μM (ELISA)” value came to 82%. Besides, at ACK1 (setting [2]), the inhibition at 10 µM worked out at 88%.
As to `Cl.O=C(O)Cc1ccc(Nc2ncc(Cl)c(NC[C@@H]3CCCO3)n2)cc1` [NT1-013, (S)-2-(4-(5-Chloro-4-((tetrahydrofuran-2-yl)methylamino)pyrimidin-2-ylamino)phenyl)acetic acid], the “% Inhibition at 10 μM (ELISA)” value on ACK1 (setting [1]) was 73% and 46%.
Regarding `COc1ccc(Nc2ncc(Br)c(NCC3CCCO3)n2)cc1.Cl` (stereo not drawn) [SK1-022, 5-Bromo-N2-(4-methoxyphenyl)-N4-((tetrahydrofuran-2-yl)methyl)pyrimidine-2,4-diamine], the “% Inhibition at 10 μM (ELISA)” value at ACK1 (setting [1]) stood at 67%. Moreover, the inhibition at 10 µM on ACK1 (setting [2]) is 68%.
The matching figures for `Cl.O=C(O)Cc1ccc(Nc2ncc(Cl)c(NC[C@H]3CCCO3)n2)cc1` [NT1-012, (R)-2-(4-(5-Chloro-4-((tetrahydrofuran-2-yl)methylamino)pyrimidin-2-ylamino)phenyl)acetic acid]: 74% and 68%.
Taken in the same sequence, the figures for `Cl.O=C(O)CCc1ccc(Nc2ncc(Cl)c(NC[C@@H]3CCCO3)n2)cc1` [NT1-015, (S)-3-(4-(5-Chloro-4-((tetrahydrofuran-2-yl)methylamino)pyrimidin-2-ylamino)phenyl)propanoic acid] were 72% and 70%.
Taken in the same sequence, the figures for `CN1CCN(c2ccc(Nc3nccc(NCC4CCCO4)n3)cc2)CC1` (stereo not drawn) [DZ1-104] were 13% and 19%.
As for `CN(C)CCNC(=O)CCc1ccc(Nc2ncc(Cl)c(NCC3CCCO3)n2)cc1.Cl` (stereo not drawn) [NT1-028, 3-(4-(5-Chloro-4-((tetrahydrofuran-2-yl)methylamino)pyrimidin-2-ylamino)phenyl)-N-(2-(dimethylamino)ethyl)propanamide], the “% Inhibition at 10 μM (ELISA)” value at ACK1 (setting [1]) worked out at 74%. The inhibition at 10 µM on ACK1 (setting [2]) turned out to be 62%.
Consider `Cl.O=C(O)CCc1ccc(Nc2ncc(Cl)c(NCC3CCCO3)n2)cc1` (stereo not drawn) [NT1-007, 3-(4-(5-Chloro-4-((tetrahydrofuran-2-yl)methylamino)pyrimidin-2-ylamino)phenyl)propanoic acid], for which the “% Inhibition at 10 μM (ELISA)” value on ACK1 (setting [1]) is 73%. Besides, on ACK1 (setting [2]), the inhibition at 10 µM was found to be 75%.

The melting point is the temperature, or range, at which the solid turns liquid. A word on the % Inhibition: it is the change of the read-out against control, counted positive when it falls. One may read the inhibition as the share of the control response that was lost under treatment.
